In patent publication US20230102554A1 (GB002, INC., priority 2019, published 2023):

Experiments:
[1] = target: T1, Human PDGFRα, cytoplasmic domain (GST-PDGFRα) (Homo sapiens, UniProt P16234); test: Human PDGFRα biochemical inhibition assay (off-chip Mobility Shift Assay)
T1 construct: made in house

[2] = target: T2, Human PDGFRβ, cytoplasmic domain (GST-PDGFRβ) (Homo sapiens, UniProt P09619); test: Human PDGFRβ biochemical inhibition assay (off-chip Mobility Shift Assay)
T2 construct: made in house
Procedure, shortened: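 GST-tagged cytoplasmic domain (aa 557-1106) from baculovirus was incubated 1 h at room temperature with compound, CSKtide, ATP at Km and Mg²⁺ in HEPES buffer, pH 7.5. Phosphorylated and unphosphorylated peptide were separated by off-chip mobility shift, and the product ratio P/(P+S) gave percent inhibition.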

T2 sequence (P09619 with tags, fused parts or gaps): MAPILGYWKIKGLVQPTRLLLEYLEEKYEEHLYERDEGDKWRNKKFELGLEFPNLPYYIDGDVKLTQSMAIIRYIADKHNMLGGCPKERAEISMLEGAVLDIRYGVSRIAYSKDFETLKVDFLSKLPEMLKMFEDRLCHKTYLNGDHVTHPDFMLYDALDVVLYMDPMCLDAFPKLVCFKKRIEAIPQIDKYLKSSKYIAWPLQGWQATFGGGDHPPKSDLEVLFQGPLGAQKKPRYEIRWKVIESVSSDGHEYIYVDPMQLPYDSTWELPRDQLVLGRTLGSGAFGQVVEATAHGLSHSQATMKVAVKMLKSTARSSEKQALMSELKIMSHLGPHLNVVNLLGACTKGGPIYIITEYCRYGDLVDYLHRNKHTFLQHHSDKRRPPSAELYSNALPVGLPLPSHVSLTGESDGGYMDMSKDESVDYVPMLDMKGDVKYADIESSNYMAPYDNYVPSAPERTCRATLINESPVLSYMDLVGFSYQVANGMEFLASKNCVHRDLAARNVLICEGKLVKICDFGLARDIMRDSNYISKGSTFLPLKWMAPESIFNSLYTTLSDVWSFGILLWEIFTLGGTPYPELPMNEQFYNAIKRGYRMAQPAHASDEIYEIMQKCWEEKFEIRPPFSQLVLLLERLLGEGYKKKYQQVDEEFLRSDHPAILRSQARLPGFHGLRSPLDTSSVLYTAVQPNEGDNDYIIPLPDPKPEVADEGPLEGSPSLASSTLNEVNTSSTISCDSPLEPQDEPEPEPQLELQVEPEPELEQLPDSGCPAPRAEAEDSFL
T1 sequence (P16234 550-1089 T674I): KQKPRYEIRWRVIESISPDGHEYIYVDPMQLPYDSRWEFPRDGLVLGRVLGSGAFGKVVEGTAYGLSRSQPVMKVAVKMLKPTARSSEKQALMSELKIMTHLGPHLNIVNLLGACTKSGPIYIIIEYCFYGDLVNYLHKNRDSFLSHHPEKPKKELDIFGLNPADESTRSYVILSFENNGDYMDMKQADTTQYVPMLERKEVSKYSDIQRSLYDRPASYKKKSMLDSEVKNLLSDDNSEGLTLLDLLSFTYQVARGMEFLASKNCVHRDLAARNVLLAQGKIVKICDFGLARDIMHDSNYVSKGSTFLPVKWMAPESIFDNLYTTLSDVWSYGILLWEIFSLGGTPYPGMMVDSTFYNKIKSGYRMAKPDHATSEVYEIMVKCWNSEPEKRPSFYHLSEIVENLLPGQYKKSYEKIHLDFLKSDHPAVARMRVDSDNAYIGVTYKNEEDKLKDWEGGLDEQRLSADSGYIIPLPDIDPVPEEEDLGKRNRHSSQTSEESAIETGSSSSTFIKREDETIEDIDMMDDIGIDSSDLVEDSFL

With CCn1cc2ncc(N[C@@H](C)c3cccc(NC(=O)Cc4cc(F)cc(CN5CCN(C)CC5)c4)c3)nc2n1 [Compound 646, (S)-N-(3-(1-((2-ethyl-2H-pyrazolo[3,4-b]pyrazin-6-yl)amino)ethyl)phenyl)-2-(3-fluoro-5-((4-methylpiperazin-1-yl)methyl)phenyl)acetamide] the IC50 [1] was < 300 nM and the IC50 [2] was 300 to 1000 nM.
CCn1cc2ncc(N[C@@H](C)c3cccc(NC(=O)Cc4ccc(F)c(F)c4)c3)nc2n1 [Compound 648, (S)-2-(3,4-difluorophenyl)-N-(3-(1-((2-ethyl-2H-pyrazolo[3,4-b]pyrazin-6-yl)amino)ethyl)phenyl)acetamide] was tested, and the IC50 [1] was < 300 nM and the IC50 [2] was < 300 nM.
With Cc1c[nH]c2ncc(N[C@@H](C)c3cccc(NC(=O)c4ccc(OC(F)(F)F)nc4)c3)nc12 [Compound 568, (S)-N-(3-(1-((7-methyl-5H-pyrrolo[2,3-b]pyrazin-2-yl)amino)ethyl)phenyl)-6-(trifluoromethoxy)nicotinamide] the IC50 [1] was 300 to 1000 nM and the IC50 [2] was ≥ 1000 nM.
For CCn1cc2ncc(N[C@@H](C)c3cc(NC(=O)c4cncc(C)c4)ccc3C)nc2n1 [Compound 510, (S)-N-(3-(1-((2-ethyl-2H-pyrazolo[3,4-b]pyrazin-6-yl)amino)ethyl)-4-methylphenyl)-5-methylnicotinamide], the IC50 [1] was < 300 nM and the IC50 [2] was < 300 nM.
Cc1cncc(C(=O)Nc2ccc(F)c([C@H](C)Nc3cnc4cn(CC5CCNC5)nc4n3)c2)c1 (stereo partly drawn) [Compound 410, N-(4-fluoro-3-((1S)-1-((2-(pyrrolidin-3-ylmethyl)-2H-pyrazolo[3,4-b]pyrazin-6-yl)amino)ethyl)phenyl)-5-methylnicotinamide] was tested, and the IC50 [1] was < 300 nM and the IC50 [2] was < 300 nM.
In the case of COc1ccc2cc(N[C@@H](C)c3cccc(NC(=O)c4cncc(C)c4)c3)cnc2c1 [Compound 28, (S)-N-(3-(1-((7-methoxyquinolin-3-yl)amino)ethyl)phenyl)-5-methylnicotinamide], the IC50 [1] is reported as < 300 nM and the IC50 [2] is reported as < 300 nM.
In the case of Cc1cc(C(=O)Nc2cccc([C@H](C)Nc3cnc4cnn(C)c4n3)c2)ccc1C(=O)OCCO [Compound 257, 2-hydroxyethyl (S)-2-methyl-4-((3-(1-((1-methyl-1H-pyrazolo[3,4-b]pyrazin-6-yl)amino)ethyl)phenyl)carbamoyl) benzoate], the IC50 [1] is reported as < 300 nM and the IC50 [2] is reported as < 300 nM.
For CCOc1ccc(C(=O)Nc2cccc([C@H](C)Nc3cnc4[nH]cc(C)c4n3)c2)cn1 [Compound 570, (S)-6-ethoxy-N-(3-(1-((7-methyl-5H-pyrrolo[2,3-b]pyrazin-2-yl)amino)ethyl)phenyl)nicotinamide], the IC50 [1] was < 300 nM and the IC50 [2] was < 300 nM.
C[C@H](Nc1cnc2cnn(C)c2n1)c1cccc(NC(=O)c2ccc(C(F)(F)F)s2)c1 [Compound 137, (S)-N-(3-(1-((1-methyl-1H-pyrazolo[3,4-b]pyrazin-6-yl)amino)ethyl)phenyl)-5-(trifluoromethyl)thiophene-2-carboxamide] was tested, and the IC50 [1] was < 300 nM and the IC50 [2] was < 300 nM.
C[C@H](Nc1cnc2[nH]ccc2n1)c1cccc(NC(=O)c2ccc(OC(F)F)nc2)c1 [Compound 595, (S)-N-(3-(1-((5H-pyrrolo[2,3-b]pyrazin-2-yl)amino)ethyl)phenyl)-6-(difluoromethoxy)nicotinamide] was tested, and the IC50 [1] was < 300 nM and the IC50 [2] was < 300 nM.
For CCn1cc2ncc(N[C@@H](C)c3cccc(NC(=O)c4cnn(CCF)c4)c3)nc2n1 [Compound 298, (S)-N-(3-(1-((2-ethyl-2H-pyrazolo[3,4-b]pyrazin-6-yl)amino)ethyl)phenyl)-1-(2-fluoroethyl)-1H-pyrazole-4-carboxamide], the IC50 [1] was < 300 nM and the IC50 [2] was 300 to 1000 nM.
For C[C@H](Nc1cnc2[nH]cc(-c3cnn(C)c3)c2n1)c1cccc(NC(=O)c2ccc(C(F)(F)F)nc2)c1 [Compound 580, (S)-N-(3-(1-((7-(1-methyl-1H-pyrazol-4-yl)-5H-pyrrolo[2,3-b]pyrazin-2-yl)amino)ethyl)phenyl)-6-(trifluoromethyl) nicotinamide], the IC50 [1] was 300 to 1000 nM and the IC50 [2] was < 300 nM.
For CCn1cc2ncc(N[C@@H](C)c3cccc(NC(=O)c4cnc(C(F)(F)F)c(C)c4)c3)nc2n1 [Compound 288, (S)-N-(3-(1-((2-ethyl-2H-pyrazolo[3,4-b]pyrazin-6-yl)amino)ethyl)phenyl)-5-methyl-6-(trifluoromethyl)nicotinamide], the IC50 [1] was < 300 nM and the IC50 [2] was < 300 nM.
C[C@H](Nc1cnc2cnn(C)c2n1)c1cccc(NC(=O)N2CCCC(C(F)(F)F)C2)c1 (stereo partly drawn) [Compound 54, N-(3-((S)-1-((1-methyl-1H-pyrazolo[3,4-b]pyrazin-6-yl)amino)ethyl)phenyl)-3-(trifluoromethyl)piperidine-1-carboxamide] was tested, and the IC50 [1] was < 300 nM and the IC50 [2] was < 300 nM.
CCn1cc2ncc(N[C@@H](C)c3cc(NC(=O)Cc4ccc(C5CCC5)cn4)ccc3F)nc2n1 [Compound 667, (S)-2-(5-cyclobutylpyridin-2-yl)-N-(3-(1-((2-ethyl-2H-pyrazolo[3,4-b]pyrazin-6-yl)amino)ethyl)-4-fluorophenyl) acetamide] was tested, and the IC50 [1] was < 300 nM and the IC50 [2] was ≥ 1000 nM.
With CCn1cc2ncc(N[C@@H](C)c3cccc(NC(=O)c4ccc(C(F)(F)F)cc4)c3)nc2n1 [Compound 453, (S)-N-(3-(1-((2-ethyl-2H-pyrazolo[3,4-b]pyrazin-6-yl)amino)ethyl)phenyl)-4-(trifluoromethyl)benzamide] the IC50 [1] was < 300 nM and the IC50 [2] was < 300 nM.
CCn1cc2ncc(N[C@@H](C)c3cc(NC(=O)Cc4cc(CN5CCCC5)c(C)cn4)ccc3C)nc2n1 [Compound 727, (S)-N-(3-(1-((2-ethyl-2H-pyrazolo[3,4-b]pyrazin-6-yl)amino)ethyl)-4-methylphenyl)-2-(5-methyl-4-(pyrrolidin-1-ylmethyl)pyridin-2-yl)acetamide] was tested, and the IC50 [1] was ≥ 1000 nM and the IC50 [2] was ≥ 1000 nM.
CCn1cc2ncc(N[C@@H](C)c3cc(NC(=O)Cc4ccc(Cl)c(C)n4)ccc3F)nc2n1 [Compound 668, (S)-2-(5-chloro-6-methylpyridin-2-yl)-N-(3-(1-((2-ethyl-2H-pyrazolo[3,4-b]pyrazin-6-yl)amino)ethyl)-4-fluorophenyl)acetamide] was tested, and the IC50 [1] was < 300 nM and the IC50 [2] was < 300 nM.
For CCn1cc2ncc(N[C@@H](C)c3cccc(NC(=O)c4ccc(CN5CC6(CN(C)C6)C5)c(C)c4)c3)nc2n1 [Compound 473, (S)-N-(3-(1-((2-ethyl-2H-pyrazolo[3,4-b]pyrazin-6-yl)amino)ethyl)phenyl)-3-methyl-4-((6-methyl-2,6-diazaspiro[3.3]heptan-2-yl)methyl)benzamide], the IC50 [1] was < 300 nM and the IC50 [2] was < 300 nM.
With CCn1cc2ncc(N[C@@H](C)c3cccc(NC(=O)c4cnc(OC)c(C)c4)c3)nc2n1 [Compound 290, (S)-N-(3-(1-((2-ethyl-2H-pyrazolo[3,4-b]pyrazin-6-yl)amino)ethyl)phenyl)-6-methoxy-5-methylnicotinamide] the IC50 [1] was < 300 nM and the IC50 [2] was < 300 nM.
In the case of Cc1c[nH]c2ncc(N[C@@H](C)c3cccc(NC(=O)c4cnn(C(F)F)c4)c3)nc12 [Compound 561, (S)-1-(difluoromethyl)-N-(3-(1-((7-methyl-5H-pyrrolo[2,3-b]pyrazin-2-yl)amino)ethyl)phenyl)-1H-pyrazole-4-carboxamide], the IC50 [1] is reported as < 300 nM and the IC50 [2] is reported as < 300 nM.
With Cc1cc(C(=O)Nc2cccc([C@H](C)Nc3cnc4cnn(C)c4n3)c2)cnc1C(C)C [Compound 231, (S)-6-isopropyl-5-methyl-N-(3-(1-((1-methyl-1H-pyrazolo[3,4-6]pyrazin-6-yl)amino)ethyl)phenyl)nicotinamide] the IC50 [1] was < 300 nM and the IC50 [2] was < 300 nM.
In the case of CCn1cc2ncc(N[C@@H](C)c3cccc(NC(=O)Nc4ccc(C5CC5)nc4)c3)nc2n1 [Compound 737, (S)-1-(6-cyclopropylpyridin-3-yl)-3-(3-(1-((2-ethyl-2H-pyrazolo[3,4-b]pyrazin-6-yl)amino)ethyl)phenyl)urea], the IC50 [1] is reported as < 300 nM and the IC50 [2] is reported as < 300 nM.
In the case of CCn1cc2ncc(N[C@@H](C)c3cccc(NC(=O)c4cnn(C5CC5)c4)c3)nc2n1 [Compound 299, (S)-1-cyclopropyl-N-(3-(1-((2-ethyl-2H-pyrazolo[3,4-b]pyrazin-6-yl)amino)ethyl)phenyl)-1H-pyrazole-4-carboxamide], the IC50 [1] is reported as < 300 nM and the IC50 [2] is reported as 300 to 1000 nM.
In the case of C[C@H](Nc1cnc2cnn(C)c2n1)c1cccc(NC(=O)c2cnn(C3CC3)c2)c1 [Compound 150, (S)-1-cyclopropyl-N-(3-(1-((1-methyl-1H-pyrazolo[3,4-b]pyrazin-6-yl)amino)ethyl)phenyl)-1H-pyrazole-4-carboxamide], the IC50 [1] is reported as < 300 nM and the IC50 [2] is reported as < 300 nM.
CCn1cc2ncc(N[C@@H](C)c3cc(NC(=O)Cc4cncc(F)c4)ccc3F)nc2n1 [Compound 653, (S)-N-(3-(1-((2-ethyl-2H-pyrazolo[3,4-b]pyrazin-6-yl)amino)ethyl)-4-fluorophenyl)-2-(5-fluoropyridin-3-yl)acetamide] was tested, and the IC50 [1] was < 300 nM and the IC50 [2] was ≥ 1000 nM.
C[C@H](Nc1cnc2cnn(C)c2n1)c1cc(NC(=O)c2cnn(C3CCC3)c2)ccc1F [Compound 213, (S)-1-cyclobutyl-N-(4-fluoro-3-(1-((1-methyl-1H-pyrazolo[3,4-b]pyrazin-6-yl)amino)ethyl)phenyl)-1H-pyrazole-4-carboxamide] was tested, and the IC50 [1] was < 300 nM and the IC50 [2] was < 300 nM.
In the case of CCNc1ncc(C(=O)Nc2cccc([C@H](C)Nc3cnc4cn(CC)nc4n3)c2)s1 [Compound 364, (S)-N-(3-(1-((2-ethyl-2H-pyrazolo[3,4-b]pyrazin-6-yl)amino)ethyl)phenyl)-2-(ethylamino)thiazole-5-carboxamide], the IC50 [1] is reported as < 300 nM and the IC50 [2] is reported as 300 to 1000 nM.
For CCn1cc2ncc(N[C@@H](C)c3cc(NC(=O)c4cnn(CCF)c4)ccc3F)nc2n1 [Compound 311, (S)-N-(3-(1-((2-ethyl-2H-pyrazolo[3,4-b]pyrazin-6-yl)amino)ethyl)-4-fluorophenyl)-1-(2-fluoroethyl)-1H-pyrazole-4-carboxamide], the IC50 [1] was < 300 nM and the IC50 [2] was < 300 nM.
